Measured values reported in patent US12251407B2, “Use of Megamonas funiformis in preventing and/or treating metabolic diseases” (BGI SHENZHEN, priority 2018, dated 2025).
Marks after values point to notes of the source that are not given here.

Columns and labels:
AF24-28AC = assay: Antibiotic sensitivity of AF24-28AC, drug sensitive paper method; type: cell-based, Megamonas funiformis; conditions: for Diameter of inhibition zone: antibiotic susceptibility papers on AF24-28AC plates, 37° C., 48 hours; for Sensitivity of AF24-28AC to the antibiotic (resistant / sensitive): drug sensitive paper method
Protocol: The sensitivity of AF24-28AC to 20 common antibiotics was tested by the drug sensitive paper method. 100 μl of AF24-28AC bacterial solution cultured to the logarithmic phase was spread plated. Antibiotic susceptibility papers (purchased from Hangzhou Microbial Reagent Co. LTD) were affixed on the medium surface of plates, cultured at 37° C. for 48 hours, after which the size of inhibition zone was measured.

T2D mice model [1] = assay: T2D animal model, fasting blood glucose; type: in vivo, C57bL/6 mice; conditions: tail vein blood
Protocol: (§1) The T2D animal model is constructed by using C57bL/6 mice (purchased from Guangdong Medical Experimental Animal Center) at 8 weeks old and 20±2 g of body weight. The mice are housed in a specific pathogen free (SPF) environment and adaptively fed for 1 week, followed by grouping and modeling. The T2D animal model is induced by injection of streptozotocin (STZ) along with feeding high-fat feed, and the mice having a fasting blood glucose (FBG) reaching 10 mM/L can be used as a T2D mice model. Fifty mice selected for experiments are randomly divided into 5 groups. • Model group: the T2D mice model was administered with saline solution by gavage; • Bacterial agent group 1: the T2D mice model was administered with the DSM 19343 bacterial solution (1×10^8 cfu/m1) by gavage; • Bacterial agent group 2: the T2D mice model was administered with the AF24-28AC bacterial solution (1×10^8 cfu/m1) by gavage; • Bacterial agent group 3: the T2D mice model was administered with the JCM 14723 bacterial solution (1×10^8 cfu/m1) by gavage; • Metformin treatment group: the T2D mice model was treated with the positive drug metformin.
(§2) The experiment was carried out based on the different groups. After the construction of T2D mice model (i.e., FBG>10), the treatment was started and lasted for 2 months. The food intake amount and body weight of mice were recorded daily. Blood of mice was collected from the tail vein every week for detection of fasting blood glucose. The oral glucose tolerance test (OGTT) of mice was measured at week 4 of treatment and at the end of the experiment.

T2D mice model [2] = assay: T2D animal model, oral glucose tolerance test (OGTT); type: in vivo, C57bL/6 mice
Protocol: as §1, §2

T2D mice model [3] = assay: T2D animal model (STZ plus high-fat feed), body weight; type: in vivo, C57bL/6 mice; conditions: gavage
Protocol: as §1, §2

Compound	Diameter of inhibition zone (AF24-28AC)	other results
Penicillin	0.0 cm	Sensitivity of AF24-28AC to the antibiotic (resistant / sensitive) (AF24-28AC): resistant
CC1(C)S[C@@H]2[C@H](NC(=O)[C@H](N)c3ccccc3)C(=O)N2[C@H]1C(=O)O [Ampicillin]	1.0 cm	–
CC1=C(C(=O)O)N2C(=O)[C@@H](NC(=O)[C@H](N)C3=CCC=CC3)[C@H]2SC1 [Cefradine]	0.8 cm	–
Cc1nnc(SCC2=C(C(=O)O)N3C(=O)[C@@H](NC(=O)Cn4cnnn4)[C@H]3SC2)s1 [Cefazolin]	4.0 cm	–
CO/N=C(\C(=O)N[C@@H]1C(=O)N2C(C(=O)O)=C(CSc3nc(=O)c(=O)[nH]n3C)CS[C@H]12)c1csc(N)n1 [Ceftriaxone Sodium]	1.0 cm	–
CN(C)C(=N)N=C(N)N [Metformin, metformin]	–	Fasting blood glucose Week 1 (T2D mice model [1]; Week 1): 16.9 mmol/L; Fasting blood glucose Week 3 (T2D mice model [1]; Week 3): 16.0 mmol/L; Fasting blood glucose Week 5 (T2D mice model [1]; Week 5): 14.3 mmol/L; Fasting blood glucose Week 7 (T2D mice model [1]; Week 7): 11.6* mmol/L; Fasting blood glucose Week 9 (T2D mice model [1]; Week 9): 10.3** mmol/L; Glucose tolerance (OGTT) blood glucose 0 minute (T2D mice model [2]; 0 minute after glucose by gavage): 9.3 mmol/L; Glucose tolerance (OGTT) blood glucose 30 minutes (T2D mice model [2]; 30 minutes after glucose by gavage): 19.4 mmol/L; Glucose tolerance (OGTT) blood glucose 60 minutes (T2D mice model [2]; 60 minutes after glucose by gavage): 16.6 mmol/L; Glucose tolerance (OGTT) blood glucose 90 minutes (T2D mice model [2]; 90 minutes after glucose by gavage): 11.7* mmol/L; Glucose tolerance (OGTT) blood glucose 120 minutes (T2D mice model [2]; 120 minutes after glucose by gavage): 10.4 mmol/L; Weight change Week 1 (T2D mice model [3]; Week 1): 20.33 g; Weight change Week 3 (T2D mice model [3]; Week 3): 22.36 g; Weight change Week 5 (T2D mice model [3]; Week 5): 24.33 g; Weight change Week 7 (T2D mice model [3]; Week 7): 25.86 g; Weight change Week 9 (T2D mice model [3]; Week 9, *P<0.05 relative to model group): 26.53* g
C[C@H]1c2cccc(O)c2C(=O)C2=C(O)[C@]3(O)C(=O)C(C(N)=O)=C(O)[C@@H](N(C)C)[C@@H]3[C@@H](O)[C@@H]21 [Doxycycline]	4.0 cm	–
NC[C@H]1O[C@H](O[C@H]2[C@H](O)[C@@H](O[C@H]3O[C@H](CO)[C@@H](O)[C@H](N)[C@H]3O)[C@H](N)C[C@@H]2N)[C@H](O)[C@@H](O)[C@@H]1O [Kanamycin]	1.8 cm	–
CCN1CCN(C(=O)N[C@@H](C(=O)N[C@@H]2C(=O)N3C(C(=O)O)=C(CSc4nnnn4C)CS[C@H]23)c2ccc(O)cc2)C(=O)C1=O [Cefoperazone]	0.0 cm	Sensitivity of AF24-28AC to the antibiotic (resistant / sensitive) (AF24-28AC): resistant
CC1=C(C(=O)O)N2C(=O)[C@@H](NC(=O)[C@H](N)c3ccccc3)[C@H]2SC1 [Cefalexin]	2.2 cm	–
CCN1CCN(C(=O)N[C@@H](C(=O)N[C@@H]2C(=O)N3[C@@H]2SC(C)(C)[C@@H]3C(=O)O)c2ccccc2)C(=O)C1=O [Piperacillin]	1.2 cm	–
Neomycin	1.3 cm	–
NCC[C@H](O)C(=O)N[C@@H]1C[C@H](N)[C@@H](O[C@H]2O[C@H](CN)[C@@H](O)[C@H](O)[C@H]2O)[C@H](O)[C@H]1O[C@H]1O[C@H](CO)[C@@H](O)[C@H](N)[C@H]1O [Amikacin]	2.6 cm	–
CC[C@H]1OC(=O)[C@H](C)[C@@H](O[C@H]2C[C@@](C)(OC)[C@@H](O)[C@H](C)O2)[C@H](C)[C@@H](O[C@@H]2O[C@H](C)C[C@H](N(C)C)[C@H]2O)[C@](C)(O)C[C@@H](C)C(=O)[C@H](C)[C@@H](O)[C@]1(C)O [Erythromycin]	1.3 cm	–
CO/N=C(\C(=O)N[C@@H]1C(=O)N2C(C(=O)O)=C(COC(N)=O)CS[C@H]12)c1ccco1 [Cefuroxime]	3.8 cm	–
CC(C)(O/N=C(\C(=O)N[C@@H]1C(=O)N2C(C(=O)[O-])=C(C[n+]3ccccc3)CS[C@H]12)c1csc(N)n1)C(=O)O [Fortum (Ceftazidime), Ceftazidime]	2.0 cm	–
CN(C)c1ccc(O)c2c1C[C@H]1C[C@H]3[C@H](N(C)C)C(O)=C(C(N)=O)C(=O)[C@@]3(O)C(O)=C1C2=O [Minocin (Minocycline), Minocycline]	4.0 cm	–
CC1(C)S[C@@H]2[C@H](NC(=O)C(C(=O)O)c3ccccc3)C(=O)N2[C@H]1C(=O)O (some centres unmarked) [Carbenicillin]	1.2 cm	–
Cc1onc(-c2ccccc2)c1C(=O)N[C@@H]1C(=O)N2[C@@H]1SC(C)(C)[C@@H]2C(=O)O [Oxacillin]	0.0 cm	Sensitivity of AF24-28AC to the antibiotic (resistant / sensitive) (AF24-28AC): resistant
Gentamicin	1.7 cm	–
CN(C)[C@@H]1C(O)=C(C(N)=O)C(=O)[C@@]2(O)C(O)=C3C(=O)c4c(O)cccc4[C@@](C)(O)[C@H]3C[C@@H]12 [Tetracycline]	4.2 cm	–
